Tested on: Dkk1-LRP5-TCF-Luciferase
Assay: Functional Dkk1-LRP5-TCF-Luciferase Assay in U2OS Cells
Settings: for fold induction at 2 µM / fold induction at 20 µM / EC50: Homo sapiens, U2OS; for fold induction at 2 µM: read-out: B = TCF ACTIVITY/DMSO CONTROL Fold induction @ 2.0 uM, 2.0 uM compound; for fold induction at 20 µM: read-out: C = TCF ACTIVITY/DMSO CONTROL Fold induction @ 20.0 uM, 20.0 uM compound; for A = MAX FOLD Induction/DMSO CONTROL: maximum fold induction over DMSO control

A = MAX FOLD Induction/DMSO CONTROL	EC50	Compound	fold induction at 2 µM	fold induction at 20 µM
		CCNC(=O)N1CCC(CNc2nccc(-c3ccc4ccccc4c3)n2)CC1 [N-ethyl-4-({[4-(2-naphthyl)pyrimidin-2-yl]amino}methyl)piperidine-1-carboxamide]	1.35	1.3
		CCCN1CCC(N(C)c2nccc(-c3ccc4ccccc4c3)n2)CC1 [N-methyl-4-(2-naphthyl)-N-(1-propylpiperidin-4-yl)pyrimidin-2-amine]	1.74	
		CCNC(=O)N1CC(CNc2nccc(-c3ccc4ccccc4c3)n2)C1 [N-ethyl-3-({[4-(2-naphthyl)pyrimidin-2-yl]amino}methyl)azetidine-1-carboxamide]	1.57	
		OC1CCN([C@@H]2CCN(c3nccc(-c4ccc5ccccc5c4)n3)C2)CC1 [1-{(3R)-1-[4-(2-naphthyl)pyrimidin-2-yl]pyrrolidin-3-yl}piperidin-4-ol]	1.44	0.14
1.340 fold		O=C(N1CCOCC1)N1CC[C@@H](Nc2nccc(-c3ccc4ccccc4c3)n2)C1 [N-[(3R)-1-(morpholin-4-ylcarbonyl)pyrrolidin-3-yl]-4-(2-naphthyl)pyrimidin-2-amine]		2.35
7.520 fold	1.1 µM	c1ccc2cc(-c3ccnc(N4CC[C@H](N5CCNCC5)C4)n3)ccc2c1 [4-(2-naphthyl)-2-[(3S)-3-piperazin-1-ylpyrrolidin-1-yl]pyrimidine]	6.16	
6.080 fold	16.1 µM	c1ccc2cc(-c3ccnc(NC4CCCNCC4)n3)ccc2c1 (stereo not shown) [N-[4-(2-naphthyl)pyrimidin-2-yl]azepan-4-amine]	1.11	4.87
		O=C(N[C@H]1CCN(c2nccc(-c3ccc4ccccc4c3)n2)C1)N1CCOCC1 [N-{(3S)-1-[4-(2-naphthyl)pyrimidin-2-yl]pyrrolidin-3-yl}morpholine-4-carboxamide]	0.93	1.72
		N=C(N)NCC1CCN(c2nccc(-c3ccc4ccccc4c3)n2)CC1 [N-({1-[4-(2-naphthyl)pyrimidin-2-yl]piperidin-4-yl}methyl)guanidine]	1.27	0.02
		NCC1CCN(c2cc(-c3ccc4ccccc4c3)cnn2)CC1 [1-{1-[5-(2-naphthyl)pyridazin-3-yl]piperidin-4-yl}methanamine]	1.58	0.4
		CN(c1nccc(-c2ccc3ccccc3c2)n1)C1CCN(c2ncccn2)CC1 [N-methyl-4-(2-naphthyl)-N-(1-pyrimidin-2-ylpiperidin-4-yl)pyrimidin-2-amine]	1.7	
		c1ccc2cc(-c3ccnc(N4CC[C@@H](N5CCCCC5)C4)n3)ccc2c1 [4-(2-naphthyl)-2-[(3R)-3-piperidin-1-ylpyrrolidin-1-yl]pyrimidine]	1.29	0.06
6.810 fold	3.74 µM	c1ccc2cc(-c3ccnc(NC[C@H]4CCNC4)n3)ccc2c1 [4-(2-naphthyl)-N-[(3S)-pyrrolidin-3-ylmethyl]pyrimidin-2-amine]		
		C[C@H](NC(=O)OC(C)(C)C)C1CCN(c2nccc(-c3ccc4ccccc4c3)n2)CC1 [tert-butyl ((1S)-1-{1-[4-(2-naphthyl)pyrimidin-2-yl]piperidin-4-yl}ethyl)carbamate]		1.08
3.450 fold	3.94 µM	CCN1CCC(CNc2nccc(-c3ccc4ccccc4c3)n2)CC1 [N-[(1-ethylpiperidin-4-yl)methyl]-4-(2-naphthyl)pyrimidin-2-amine]	1.5	0.908
2.270 fold		CN(C)C(=O)N[C@H]1CC[C@H](Nc2nccc(-c3ccc4ccccc4c3)n2)CC1 [N,N-dimethyl-N′-(trans-4-{[4-(2-naphthyl)pyrimidin-2-yl]amino}cyclohexyl)urea]	2.78	1.61
		CN(CCN(C)S(=O)(=O)N(C)C)[C@@H]1CCN(c2nccc(-c3ccc4ccccc4c3)n2)C1 [N,N,N′-trimethyl-N′-[2-(methyl{(3R)-1-[4-(2-naphthyl)pyrimidin-2-yl]pyrrolidin-3-yl}amino)ethyl]sulfamide]	1.3	
	2.2 µM	O[C@@H]1CCCN([C@@H]2CCN(c3nccc(-c4ccc5ccccc5c4)n3)C2)C1 [(3R)-1-{(3R)-1-[4-(2-naphthyl)pyrimidin-2-yl]pyrrolidin-3-yl}piperidin-3-ol]		
		CCN(CC)C(=O)NCCC1CCN(c2nccc(-c3ccc4ccccc4c3)n2)CC1 [N,N-diethyl-N′-(2-{1-[4-(2-naphthyl)pyrimidin-2-yl]piperidin-4-yl}ethyl)urea]	1.13	0.33

A = MAX FOLD Induction/DMSO CONTROL	EC50	Compound	fold induction at 2 µM	fold induction at 20 µM
		NC(=O)NCC1CCN(c2nccc(-c3ccc4ccccc4c3)n2)CC1 [N-({1-[4-(2-naphthyl)pyrimidin-2-yl]piperidin-4-yl}methyl)urea]	1.29	1.18
0.890 fold		COC(=O)N[C@@H]1CCN(c2nccc(-c3ccc4ccccc4c3)n2)C1 [methyl {(3R)-1-[4-(2-naphthyl)pyrimidin-2-yl]pyrrolidin-3-yl}carbamate]	2.2	0.43
		CN(C1CCCCC1)[C@@H]1CCN(c2nccc(-c3ccc4ccccc4c3)n2)C1 [(3R)—N-cyclohexyl-N-methyl-1-[4-(2-naphthyl)pyrimidin-2-yl]pyrrolidin-3-amine]	1.07	1.77
		CN1CCN(C(=O)[C@@H]2CCCN2c2nccc(-c3ccc4ccccc4c3)n2)CC1 [2-{(2S)-2-[(4-methylpiperazin-1-yl)carbonyl]pyrrolidin-1-yl}-4-(2-naphthyl)pyrimidine]	0.9	1.6
		CN1C[C@@H]2C[C@H]1CN2[C@@H]1CCN(c2nccc(-c3ccc4ccccc4c3)n2)C1 [(1S,4S)-2-methyl-5-{(3R)-1-[4-(2-naphthyl)pyrimidin-2-yl]pyrrolidin-3-yl}-2,5-diazabicyclo[2.2.1]heptane]	1.5	
2.260 fold		CN(C)[C@H]1CCN(C[C@H]2CCN(c3nccc(-c4ccc5ccccc5c4)n3)C2)C1 [(3S)—N,N-dimethyl-1-({(3R)-1-[4-(2-naphthyl)pyrimidin-2-yl]pyrrolidin-3-yl}methyl)pyrrolidin-3-amine]	2.55	0.02
		c1ccc2c(c1)CCN(c1nccc(-c3ccc4ccccc4c3)n1)C2 [2-[4-(2-naphthyl)pyrimidin-2-yl]-1,2,3,4-tetrahydroisoquinoline]	0.95	1.38
3.165 fold	6.8 µM	O=CN1CC[C@H](Nc2nccc(-c3ccc4ccccc4c3)n2)C1 [(3S)-3-{[4-(2-naphthyl)pyrimidin-2-yl]amino}pyrrolidine-1-carbaldehyde]	1.8	3.51
		CN(C)C(=O)NCC1CN(c2nccc(-c3ccc4ccccc4c3)n2)C1 [N,N-dimethyl-N′-({1-[4-(2-naphthyl)pyrimidin-2-yl]azetidin-3-yl}methyl)urea]	0.99	1.43
		CS(=O)(=O)N1CCC(CNc2nccc(-c3ccc4ccccc4c3)n2)CC1 [N-{[1-(methylsulfonyl)piperidin-4-yl]methyl}-4-(2-naphthyl)pyrimidin-2-amine]	1.54	1.35
		CC(C)(C)NC(=O)[C@H]1CCCN1c1nccc(-c2ccc3ccccc3c2)n1 [N-tert-butyl-1-[4-(2-naphthyl)pyrimidin-2-yl]-D-prolinamide]	1.16	0.6
		c1ccc2cc(-c3ccnc(N4CCC(CN5CCCCCC5)CC4)n3)ccc2c1 [1-({1-[4-(2-naphthyl)pyrimidin-2-yl]piperidin-4-yl}methyl)azepane]	1.45	
		CN(C)CCN(C)[C@@H]1CCN(c2nccc(-c3ccc4ccccc4c3)n2)C1 [N,N,N′-trimethyl-N′-{(3R)-1-[4-(2-naphthyl)pyrimidin-2-yl]pyrrolidin-3-yl}ethane-1,2-diamine]	2.4	
		O=C(N[C@@H]1CCN(c2nccc(-c3ccc4ccccc4c3)n2)C1)N1CCOCC1 [N-{(3R)-1-[4-(2-naphthyl)pyrimidin-2-yl]pyrrolidin-3-yl}morpholine-4-carboxamide]	1.91	
		COC(=O)NCC1CCN(c2nccc(-c3ccc4ccccc4c3)n2)CC1 [methyl ({1-[4-(2-naphthyl)pyrimidin-2-yl]piperidin-4-yl}methyl)carbamate]	1.21	1.59
		CN(c1nccc(-c2ccc3ccccc3c2)n1)C1CCN(Cc2ccccc2)CC1 [N-(1-benzylpiperidin-4-yl)-N-methyl-4-(2-naphthyl)pyrimidin-2-amine]	1.55	1.24
3.200 fold	8.86 µM	COC(=O)[C@H](N)C1CCN(c2nccc(-c3ccc4ccccc4c3)n2)CC1 [methyl (2R)-amino{1-[4-(2-naphthyl)pyrimidin-2-yl]piperidin-4-yl}acetate]	1.68	1.05
		N[C@@H]1CCN([C@@H]2CCN(c3nccc(-c4ccc5ccccc5c4)n3)C2)C1 [(3R,3′R)-1′-[4-(2-naphthyl)pyrimidin-2-yl]-1,3′-bipyrrolidin-3-amine]	1.39	
		CN(C)CCN[C@H]1CCN(c2nccc(-c3ccc4ccccc4c3)n2)C1 [N,N-dimethyl-N′-{(3S)-1-[4-(2-naphthyl)pyrimidin-2-yl]pyrrolidin-3-yl}ethane-1,2-diamine]	1.5	

Compound	A = MAX FOLD Induction/DMSO CONTROL	EC50	fold induction at 2 µM	fold induction at 20 µM
CN(c1nccc(-c2ccc3ccccc3c2)n1)C1CCN(CC(N)=O)CC1 [2-(4-{methyl[4-(2-naphthyl)pyrimidin-2-yl]amino}piperidin-1-yl)acetamide]	2.215 fold		2.62	0.02
